Experimental data: PMC5906549, “Cathelicidin-Derived Antimicrobial Peptides Inhibit Zika Virus Through Direct Inactivation and Interferon Pathway” (Frontiers in Immunology, 2018)
Peptide text beside a SMILES is read from it.

Test system: ZIKV strain MR766
Test: Post-infection peptide treatment of ZIKV-infected human fetal astrocytes (RT-PCR and plaque-forming assay)
Assay type: cell-based, Zika virus
Conditions: human fetal astrocytes infected MOI 0.5 for 24 h, then peptide 10 µM for 24 h, N = 4; for Zika virions after post-infection treatment (plaque-forming assay): cell-free supernatants; for ZIKV RNA after post-infection treatment, compared with untreated ZIKV group: normalized to GAPDH
Protocol: Vero cells were plated into 12-well plates at 5 (10^5 cells/well the day before infection). On the day of infection, the monolayers of Vero cells were inoculated with 100 µL of 10-fold serial dilutions of viral stocks and incubated at 37 °C for 1 h. After viral inoculation, medium containing ZIKV particles was removed and 1 ml overlay containing 0.6% molecular biology grade agarose (Agarose Unlimited, Alachua, FL, USA) in Modified Eagle Medium (Gibco) with 2% FBS. Cells were maintained at 37°C in 5% CO2 for 4 days. On day 5, cells were fixed with 4% paraformaldehyde solution in PBS and stained with 1% crystal violet solution in 20% methanol in water. Viral plaques were photographed using a CanonScan 9950F scanner and each plaque was counted as a plaque-forming unit (PFU). Viral titer was calculated as PFU/[volume virus (mL) × (dilution factor)].
Total mRNA was isolated with TRIzol Reagent (Thermo Fisher Scientific) and RNeasy Mini Kit (QIAGEN Inc., Valencia, CA, USA) following the manufacturer’s recommendations. Two real-time RT-PCR methods were used for the current studies. First, SYBR Green-based RT-PCR assay was used to determine intracellular ZIKV RNA in Vero cells. For this assay, reverse transcription was performed using Verso cDNA synthesis Kit (Thermo Fisher Scientific) and 1 µg of total RNA in a 15-µL final volume. The RT-PCR analyses were performed using 7.5-µL SYBR Green PCR Master Mix (Thermo Fisher Scientific) with 0.5-µL cDNA, 1.5-µL H2O, 5.5-µL oligonucleotide primer pairs at 10 µM. Primers used were ZIKV RNA: forward sequence 5-[…]-3, reverse sequence 5-[…]-3; GAPDH: forward sequence 5-[…]-3, reverse sequence 5-GGCTGT […] GG-3. PCR program: 1, 50°C for 2 min; 2, 95°C for 2 min; 3, 95°C for 15 s; 4, specific annealing temperature for 15 s; 5, 72°C for 1 min. Steps 2–4 were repeated 40 times. All samples were amplified in triplicate for analysis. Relative ZIKV RNA levels were determined and standardized with a GAPDH internal control using comparative ΔΔCT method ([35]). Second, TaqMan-based RT-PCR assay was used to determine intracellular ZIKV RNA and other gene expressions in Figures 3–6 and extracellular ZIKV RNA in Figure 3. […] Relative ZIKV mRNA levels were determined and standardized with a GAPDH or 18-s rRNA endogenous control using comparative ΔΔCT method ([35]). All reference genes, including GAPDH, β-actin, and 18-s rRNA, detected identical changes of genes (Figure S1 in Supplementary Material). […] Quantitative genomic RNA from ZIKV (NR-1838DQ, ATCC) was used as a standard to calculate viral copies. […]
Figure 4 Antimicrobial peptides treatment post-infection is still effective in inhibiting Zika virus (ZIKV) infection. […] (B–D) At 24-h post-antimicrobial peptide treatment, RNA was isolated from cells and ZIKV RNA was determined through real-time RT-PCR. […]

| SMILES | Zika virions after post-infection treatment (plaque-forming assay) | ZIKV RNA after post-infection treatment, compared with untreated ZIKV group |
| --- | --- | --- |
| CC[C@H](C)[C@H](NC(=O)[C@H](CCCNC(=N)N)NC(=O)[C@H](CCC(N)=O)NC(=O)[C@@H](NC(=O)[C@@H](NC(=O)[C@H](CCCNC(=N)N)NC(=O)[C@H](CCCCN)NC(=O)[C@H](Cc1ccccc1)NC(=O)CN)[C@@H](C)CC)C(C)C)C(=O)N[C@@H](CCCCN)C(=O)N[C@@H](CC(=O)O)C(=O)N[C@@H](Cc1ccccc1)C(=O)N[C@@H](CC(C)C)C(=O)N[C@@H](CCCNC(=N)N)C(=O)N[C@@H](CC(N)=O)C(=O)N[C@@H](CC(C)C)C(=O)N[C@H](C(N)=O)C(C)C [GF-17] (H-GFKRIVQRIKDFLRNLV-NH2; N-terminus and C-terminus assumed) | fewer virions | significantly decreased ZIKV RNA |
| CC[C@H](C)[C@H](NC(=O)[C@H](CCCCN)NC(=O)[C@H](CCCCN)NC(=O)[C@H](Cc1ccccc1)NC(=O)[C@H](CC(C)C)NC(=O)[C@H](CCCCN)NC(=O)[C@H](CCCCN)NC(=O)[C@H](Cc1ccccc1)NC(=O)[C@H](CCCCN)NC(=O)[C@H](CCCCN)NC(=O)[C@H](CCCNC(=N)N)NC(=O)[C@H](Cc1ccccc1)NC(=O)[C@H](CCCNC(=N)N)NC(=O)[C@H](CCCCN)NC(=O)[C@H](Cc1ccccc1)NC(=O)[C@H](CCCNC(=N)N)NC(=O)CN)C(=O)N[C@@H](CO)C(=O)O [BMAP-18] (H-GRFKRFRKKFKKLFKKIS-OH; N-terminus and C-terminus assumed) | fewer virions | trended downward; however, the difference was not significant |
